Experimental data published in PMC10092844, “Inhibition profile of trifludimoxazin towards PPO2 target site mutations” (Pest Management Science, 2022).
Positions count from the first letter of the chain named.

Columns and labels:
PPO2 G399A = target: T1, PPO2 G399A (Amaranthus tuberculatus, UniProt Q0NZW9, G398A); experiment: biochemical; format: biochemical
T1 sequence (Q0NZW9 31-534 G398A): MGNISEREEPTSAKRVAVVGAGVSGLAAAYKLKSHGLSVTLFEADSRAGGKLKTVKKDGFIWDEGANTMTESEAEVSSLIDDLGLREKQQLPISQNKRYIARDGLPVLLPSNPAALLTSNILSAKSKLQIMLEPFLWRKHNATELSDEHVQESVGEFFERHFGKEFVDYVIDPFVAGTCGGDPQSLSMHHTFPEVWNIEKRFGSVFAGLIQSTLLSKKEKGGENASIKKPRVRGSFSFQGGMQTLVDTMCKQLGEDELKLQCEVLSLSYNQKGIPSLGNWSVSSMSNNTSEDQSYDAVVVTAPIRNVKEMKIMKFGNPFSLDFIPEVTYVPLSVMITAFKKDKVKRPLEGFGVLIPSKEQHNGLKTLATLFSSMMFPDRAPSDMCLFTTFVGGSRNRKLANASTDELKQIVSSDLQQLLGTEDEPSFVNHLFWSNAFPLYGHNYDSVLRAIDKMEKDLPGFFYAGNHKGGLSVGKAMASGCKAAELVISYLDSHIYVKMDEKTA

PPO2 R128I ΔG210 = target: T2, PPO2 R128I ΔG210 (Amaranthus tuberculatus, UniProt Q0NZW9, DEL210-210/R128I); experiment: biochemical; format: biochemical
T2 sequence (Q0NZW9 with tags, fused parts or gaps R128I/DEL210-210): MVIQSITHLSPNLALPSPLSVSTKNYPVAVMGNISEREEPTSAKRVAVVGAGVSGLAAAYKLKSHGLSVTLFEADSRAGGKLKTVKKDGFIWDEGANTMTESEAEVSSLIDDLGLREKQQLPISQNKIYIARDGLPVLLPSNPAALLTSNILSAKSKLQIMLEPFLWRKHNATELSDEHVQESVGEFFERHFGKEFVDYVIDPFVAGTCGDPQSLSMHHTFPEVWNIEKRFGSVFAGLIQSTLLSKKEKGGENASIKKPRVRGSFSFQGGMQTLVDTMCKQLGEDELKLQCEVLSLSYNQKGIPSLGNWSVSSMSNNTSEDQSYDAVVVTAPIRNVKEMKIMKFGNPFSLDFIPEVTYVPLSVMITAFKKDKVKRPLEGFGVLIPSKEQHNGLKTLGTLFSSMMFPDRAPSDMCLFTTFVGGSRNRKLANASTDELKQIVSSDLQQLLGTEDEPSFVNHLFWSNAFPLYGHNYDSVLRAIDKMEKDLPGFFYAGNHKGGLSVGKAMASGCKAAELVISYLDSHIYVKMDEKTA

[1] = target: T3, PPO2 R128C ΔG210 in Escherichia coli hemG (Amaranthus tuberculatus, UniProt Q0NZW9, DEL210/R128C, cells depend on it); format: cell-based; details: read-out: IC50 (E. coli hemG growth)
T3 sequence (Q0NZW9 with tags, fused parts or gaps R128C/DEL210): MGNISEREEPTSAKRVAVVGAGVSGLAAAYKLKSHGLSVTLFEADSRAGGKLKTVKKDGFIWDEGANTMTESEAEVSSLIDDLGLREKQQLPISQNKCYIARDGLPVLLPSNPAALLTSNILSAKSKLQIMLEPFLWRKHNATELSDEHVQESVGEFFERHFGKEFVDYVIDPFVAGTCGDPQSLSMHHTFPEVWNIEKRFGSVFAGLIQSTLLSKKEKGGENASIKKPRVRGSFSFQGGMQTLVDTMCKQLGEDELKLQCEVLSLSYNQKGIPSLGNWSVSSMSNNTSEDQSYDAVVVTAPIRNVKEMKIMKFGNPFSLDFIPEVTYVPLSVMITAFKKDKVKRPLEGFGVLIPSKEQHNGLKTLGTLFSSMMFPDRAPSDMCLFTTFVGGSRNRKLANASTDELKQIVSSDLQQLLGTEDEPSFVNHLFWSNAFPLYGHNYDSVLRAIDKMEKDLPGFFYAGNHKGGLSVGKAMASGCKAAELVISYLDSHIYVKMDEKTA

[2] = target: T4, PPO2 R128A ΔG210 in Escherichia coli hemG (Amaranthus tuberculatus, UniProt Q0NZW9, DEL210/R128A, cells depend on it); format: cell-based; details: read-out: IC50 (E. coli hemG growth)
T4 sequence (Q0NZW9 with tags, fused parts or gaps R128A/DEL210): T3 sequence (Q0NZW9 with tags, fused parts or gaps R128C/DEL210) with C98A

[3] = target: T5, PPO2 R128E ΔG210 in Escherichia coli hemG (Amaranthus tuberculatus, UniProt Q0NZW9, DEL210/R128E, cells depend on it); format: cell-based; details: read-out: IC50 (E. coli hemG growth)
T5 sequence (Q0NZW9 with tags, fused parts or gaps R128E/DEL210): T3 sequence (Q0NZW9 with tags, fused parts or gaps R128C/DEL210) with C98E

Compound	IC50 (PPO2 G399A)	IC50 (PPO2 R128I ΔG210)	IC50 [1]	IC50 [2]	IC50 [3]	Resistance factor (PPO2 R128I ΔG210)
CS(=O)(=O)NC(=O)c1cc(Oc2ccc(C(F)(F)F)cc2Cl)ccc1[N+](=O)[O-] [Fomesafen, fomesafen]	> 10000 nM	> 10000 nM	–	–	–	–
CCOC(=O)C(C)OC(=O)c1cc(Oc2ccc(C(F)(F)F)cc2Cl)ccc1[N+](=O)[O-] (stereo not drawn) [Lactofen, lactofen]	1580 nM	1950 nM	> 10000 nM	> 10000 nM	2890 nM	–
CC(C)N(C)S(=O)(=O)NC(=O)c1cc(-n2c(=O)cc(C(F)(F)F)n(C)c2=O)c(F)cc1Cl [Saflufenacil, saflufenacil]	627 nM	> 10000 nM	> 10000 nM	> 10000 nM	> 10000 nM	–
C#CCN1C(=O)C(F)(F)Oc2cc(F)c(-n3c(=O)n(C)c(=S)n(C)c3=O)cc21 [Trifludimoxazin, trifludimoxazin]	1.17 nM	99.3 nM	46.5 nM	46.5 nM	9.87 nM	405
